Measurements as given in ChEMBL document CHEMBL5620386, “Synthesis, biological screening and in silico studies of new N-phenyl-4-(1,3-diaryl-1H-pyrazol-4-yl)thiazol-2-amine derivatives as potential antifungal and antitubercular agents” (Eur J Med Chem, 2023).
Values after ≈ are worked out from the molar mass of the structure shown. Values joined by “and” are separate entries in the source; they are usually repeats but may differ in a detail not shown here. Equal values may be shown once. Active and inactive are the calls of the source. The rule behind the calls is not given here.

Key:
Staphylococcus aureus [1] = assay: Antimicrobial activity against Staphylococcus aureus NCIM 2178 assessed as zone of inhibition by well diffusion method; type: functional
Aspergillus niger [2] = assay: Antifungal activity against Aspergillus niger ATCC 504 assessed as absence of growth by well diffusion method; type: functional
Proteus mirabilis [3] = assay: Antimicrobial activity against Proteus mirabilis NCIM 2388 assessed as absence of growth by well diffusion method; type: functional
[4] = Cytotoxicity against mouse 3T3-L1 cells assessed as cell viability at 12.5 ug/ml measured after 24 hrs by MTT assay relative to control; type: toxicity, cell-based; conditions: at 12.5 µg/mL, read-out: Activity
[5] = tested on: Mycobacterium tuberculosis; assay: Antitubercular activity Mycobacterium tuberculosis H37Rv strain ATCC No- 27294 assessed as prevention of color change from blue to pink using Almar Blue measured after 24 hrs by MABA assay; type: functional
Candida albicans = assay: Antifungal activity against Candida albicans NCIM 3100 assessed as zone of inhibition by well diffusion method; type: functional
Proteus mirabilis [6] = assay: Antimicrobial activity against Proteus mirabilis NCIM 2388 assessed as zone of inhibition by well diffusion method; type: functional
Aspergillus niger [7] = assay: Antifungal activity against Aspergillus niger ATCC 504 assessed as zone of inhibition by well diffusion method; type: functional
Escherichia coli = assay: Antimicrobial activity against Escherichia coli NCIM 2574 assessed as zone of inhibition by well diffusion method; type: functional
Staphylococcus aureus [8] = assay: Antimicrobial activity against Staphylococcus aureus NCIM 2178 assessed as absence of growth by well diffusion method; type: functional
Bacillus subtilis = assay: Antimicrobial activity against Bacillus subtilis NCIM 2063 assessed as zone of inhibition by well diffusion method; type: functional
[9] = Cytotoxicity against mouse 3T3-L1 cells assessed as cell viability at 25 ug/ml measured after 24 hrs by MTT assay relative to control; type: toxicity, cell-based; conditions: at 25 µg/mL, read-out: Activity

Structure (SMILES) | inhibition zone (IZ) (Staphylococcus aureus [1]) [mm] | MIC (Aspergillus niger [2]) | MIC (Proteus mirabilis [3]) [µg/mL] | viability at 24 h, 12.5 ug/ml [4] [%] | MIC [5] | inhibition zone (IZ) (Candida albicans) [mm] | inhibition zone (IZ) (Proteus mirabilis [6]) [mm] | inhibition zone (IZ) (Aspergillus niger [7]) [mm] | inhibition zone (IZ) (Escherichia coli) | MIC (Staphylococcus aureus [8]) | inhibition zone (IZ) (Bacillus subtilis) [mm] | viability at 24 h, 25 ug/ml [9] [%]
Cc1ccc(-c2nn(-c3ccccc3)cc2-c2csc(Nc3ccccc3)n2)cc1 | 15 | 15.6 µg/mL and 38.3 µM | 125 (≈ 306 µM) | 64.6 | 12.5 µg/mL and 30.6 µM | 9.6 | 15 | 20 | 13 mm | 125 µg/mL (≈ 306 µM) | 11.4 | 57.3
COc1ccc(Nc2nc(-c3cn(-c4ccc(F)cc4)nc3-c3ccccc3)cs2)cc1 | 15 | 15.6 µg/mL and 35.3 µM |  | 98.2 | 3.12 µg/mL and 7.07 µM | 10.4 | 13.8 | 19.2 | inactive | 125 µg/mL (≈ 282 µM) | 12.4 | 97.2
Clc1ccc(-c2nn(-c3ccccc3)cc2-c2csc(Nc3ccccc3)n2)cc1 | 14 | 31.2 µg/mL and 72.8 µM | 125 (≈ 291 µM) |  | 25 µg/mL and 58.4 µM | 11 | 15.2 | 17.4 | inactive | 125 µg/mL (≈ 291 µM) | 12 | 
Fc1ccc(-n2cc(-c3csc(Nc4ccccc4)n3)c(-c3ccccc3)n2)cc1 | 15 | 15.6 µg/mL and 37.9 µM |  | 99.5 | 12.5 µg/mL and 30.3 µM | 10 | 13.8 | 18.6 | inactive | 125 µg/mL (≈ 303 µM) | 12 | 94.8
COc1ccc(Nc2nc(-c3cn(-c4ccc(F)cc4)nc3-c3ccc(Cl)cc3)cs2)cc1 | 15 | 15.6 µg/mL and 32.8 µM |  | 72.9 | 1.6 µg/mL and 3.36 µM | 11.4 | 13.2 | 18.8 | inactive | 125 µg/mL (≈ 262 µM) | 12.2 | 63.1
Fc1ccc(-n2cc(-c3csc(Nc4ccc(Cl)cc4)n3)c(-c3ccccc3)n2)cc1 | 16 | 15.6 µg/mL and 35 µM | 125 (≈ 280 µM) | 102 | 3.12 µg/mL and 7.01 µM | 10.8 | 15 | 18.8 | 13 mm | 62.5 µg/mL and 140 µM | 13 | 46
Cc1ccc(Nc2nc(-c3cn(-c4ccc(F)cc4)nc3-c3ccc(Cl)cc3)cs2)cc1 | 17 | 15.6 µg/mL and 34 µM | 125 (≈ 271 µM) | 72 | 1.6 µg/mL and 3.47 µM | 10.8 | 15 | 20.2 | inactive | 62.5 µg/mL and 136 µM | 12.2 | 91.3
NC(=O)c1cnccn1 [PYRAZINAMIDE] |  |  |  |  | 3.12 µg/mL and 25.4 µM |  |  |  |  |  |  | 
CO[C@H]1/C=C/O[C@@]2(C)Oc3c(C)c(O)c4c(O)c(c(/C=N/N5CCN(C)CC5)c(O)c4c3C2=O)NC(=O)/C(C)=C\C=C\[C@H](C)[C@H](O)[C@@H](C)[C@@H](O)[C@@H](C)[C@H](OC(C)=O)[C@@H]1C [RIFAMPIN] |  |  |  |  | 0.8 µg/mL and 0.972 µM |  |  |  |  |  |  | 
COc1ccc(Nc2nc(-c3cn(-c4ccccc4)nc3-c3ccccc3)cs2)cc1 | 15 | 15.6 µg/mL and 36.8 µM | 125 (≈ 294 µM) |  | 25 µg/mL and 58.9 µM | 11.6 | 14.2 | 20 | inactive | 125 µg/mL (≈ 294 µM) | 12.75 | 
NNC(=O)c1ccncc1 [ISONIAZID] |  |  |  |  | 1.6 µg/mL and 11.7 µM |  |  |  |  |  |  | 
COc1ccc(Nc2nc(-c3cn(-c4ccccc4)nc3-c3ccc(C)cc3)cs2)cc1 | 14 | 15.6 µg/mL and 35.7 µM | 125 (≈ 285 µM) | 97.5 | 50 µg/mL and 114 µM | 10.6 | 15 | 18.6 | inactive | 125 µg/mL (≈ 285 µM) | 12.4 | 90.5
Clc1ccc(Nc2nc(-c3cn(-c4ccccc4)nc3-c3ccccc3)cs2)cc1 | 15.8 | 15.6 µg/mL and 36.5 µM | 125 (≈ 291 µM) |  | 25 µg/mL and 58.4 µM | 11.2 | 14.8 | 19.2 | inactive | 62.5 µg/mL and 146 µM | 12.2 | 
Cc1ccc(-c2nn(-c3ccccc3)cc2-c2csc(Nc3ccc(Cl)cc3)n2)cc1 | 16 | 15.6 µg/mL and 35.3 µM |  | 67.5 | 0.8 µg/mL and 1.8 µM | 10 | 13.8 | 20 | inactive | 62.5 µg/mL and 141 µM | 13.8 | 61.8
Fc1ccc(-n2cc(-c3csc(Nc4ccc(Cl)cc4)n3)c(-c3ccc(Cl)cc3)n2)cc1 | 15 | 15.6 µg/mL and 32.5 µM |  | 74.4 | 1.6 µg/mL and 3.33 µM | 10.4 | 13.6 | 19 | 11 mm | 125 µg/mL (≈ 260 µM) | 12.6 | 56.7
Cc1ccc(Nc2nc(-c3cn(-c4ccccc4)nc3-c3ccccc3)cs2)cc1 | 15 | 15.6 µg/mL and 38.3 µM | 125 (≈ 306 µM) |  | 50 µg/mL and 122 µM | 10.4 | 15 | 18.4 | inactive | 125 µg/mL (≈ 306 µM) | 12 | 
Cc1ccc(Nc2nc(-c3cn(-c4ccccc4)nc3-c3ccc(C)cc3)cs2)cc1 | 13 | 15.6 µg/mL and 37 µM | 125 (≈ 296 µM) | 70.1 | 1.6 µg/mL and 3.79 µM | 11.4 | 15 | 18 | inactive |  | 13.2 | 
CC[C@@H](CO)NCCN[C@@H](CC)CO [ETHAMBUTOL] |  |  |  |  | 1.6 µg/mL and 7.83 µM |  |  |  |  |  |  | 
